Tests used:
[1] = urinary 41Ca/Ca variability in monthly urine samples after oral 41Ca dose; format: in vivo; details: days 500 to 700 after 1.2 ng oral 41Ca dose, six human volunteers
From the text: ^41Ca remains quantifiable via accelerator mass spectrometry (AMS) in human urine and blood for many years following a single chemically and radiologically benign oral or intravenous dose; this longevity makes urinary ^41Ca content very specific to bone turnover. […] Applicants also measured tracer distribution and increased ^41Ca release from pre-labeled bones in a human xenograft model of metastatic bone disease from prostate cancer. […] Low natural variability of urinary ^41Ca/Ca in humans will enable a non-invasive, highly sensitive clinical measure of bone turnover perturbations from metastatic bone disease.

[2] = tested on: human xenograft model of metastatic bone disease from prostate cancer; test: tracer distribution and 41Ca release from pre-labeled bones in human xenograft model of metastatic bone disease; format: in vivo, nude mice
From the text: However, the ultimate value of these techniques for individual patients is uncertain, due (in part) to high natural variability of biomarkers in urine and serum (Kannis J A, McCloskey E V. Bone turnover and biochemical markers in malignancy. Cancer. 1997; 80:1538-45). Applicants believe that labeling the human skeleton with a ^41Ca tracer and monitoring urinary tracer abundance will provide a non-invasive, highly sensitive, clinically useful measure of bone turnover. The longest half-life isotope of calcium, ^41Ca, provides a sensitive method for tracking short and long-term bone turnover parameters. Due to extremely low natural abundance (<10^−15), a single sub-physiological ^41Ca dose (less than 1 ug=4 kBq=0.1 uCi) remains quantifiable via accelerator mass spectrometry (AMS) in blood and urine for many years: this longevity within the body's primary calcium pool makes ^41Ca variation specific to bone turnover (Weaver C M. Use of calcium tracers and biomarkers to determine calcium kinetics and bone turnover. Bone. 1998; 22(5):103S-104S). […]
^41Ca remains quantifiable via accelerator mass spectrometry (AMS) in human urine and blood for many years following a single chemically and radiologically benign oral or intravenous dose; this longevity makes urinary ^41Ca content very specific to bone turnover. […]

[3] = cited from earlier work

**Q.** Which “41Ca/Ca scatter about individual linear fits” value [1] does the source give for `[41Ca]` [^41Ca, radioactive calcium isotope ^41Ca] here?
**A.** 5±3%

**Q.** And the tracer distribution ([2]; human xenograft tumor model in nude mice)?
**A.** preferentially labels bone

**Q.** And the “serum 41Ca/Ca correlation with disease measures” value ([2]; serum, pre-labeled bones, xenograft model of prostate cancer bone metastasis)?
**A.** positively correlating with tumor size, skeletal disruption, serum tumor markers, and degree of hypercalcemia

**Q.** And the “lifetime radioactive exposure from ingested dose” value ([3]; ingested)?
**A.** < 2e-10 Sv/Bq

**Q.** And the “lifetime radioactive exposure from injected dose” value ([3]; injected)?
**A.** < 7e-10 Sv/Bq

Source: patent US8388930B2, “Diagnosis and assessment of skeletal related disease using calcium 41” (Lawrence LIvermore National Security, LLC, priority 2004, dated 2013)
